In patent US12679878B2, “CRF2 receptor agonists and their use in therapy” (SANOFI, priority 2020, dated 2026):
≈ marks a conversion by molar mass, not a printed value. Read-outs that look alike come from different tables or passages of the source. Starred links: 1 amine or outer side, 2 acyl side, 3 side chain; linkers in the order of their positions; H or OH if unused. Non-standard residues stand in square brackets, D forms with d. Residues, ends and D or L forms follow the SMILES beside them. Groups on a side chain read outwards from the residue. *: point of attachment. γGlu = O=C(O)[C@H](CCC(=O)[*:2])N[*:1]; Palmitoyl = CCCCCCCCCCCCCCCC(=O)*; Aib = CC(C)(N)C(=O)O

Assays:
human CRF2α receptor = target: T1, human CRF2α receptor (Homo sapiens, UniProt Q13324); experiment: cAMP agonism at human CRF2 α receptor in TeloHEAC cells (Example 7); assay type: cell-based; details: cAMP HTRF, TeloHEAC cells stably expressing human CRF2 α
T1 construct: expressed in transfected cells; host or cells: TeloHEAC
T1 sequence (Q13324 1-411): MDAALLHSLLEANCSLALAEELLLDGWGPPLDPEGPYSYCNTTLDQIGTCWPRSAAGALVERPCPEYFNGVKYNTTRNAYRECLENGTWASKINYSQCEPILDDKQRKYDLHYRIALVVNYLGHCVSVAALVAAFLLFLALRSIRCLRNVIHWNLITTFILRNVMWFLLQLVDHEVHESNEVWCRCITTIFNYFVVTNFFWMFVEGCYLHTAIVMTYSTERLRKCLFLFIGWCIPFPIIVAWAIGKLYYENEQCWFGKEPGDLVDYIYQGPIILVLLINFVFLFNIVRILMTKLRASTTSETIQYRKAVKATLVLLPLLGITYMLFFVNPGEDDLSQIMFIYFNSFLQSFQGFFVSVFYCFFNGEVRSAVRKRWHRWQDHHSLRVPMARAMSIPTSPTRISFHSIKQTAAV
How it was run: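 Percent activation was referenced to 1000 nM UCN2 (100%), and EC50 values taken as concentrations giving half of maximal response. The read-out was a homogeneous time-resolved fluorescence cAMP kit, fluorescence ratio 665/620 nm. Thawed cells (2000/well) saw compound for 30 min at RT in buffer with 2 mM IBMX and 0%/0.1% HSA.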

[1] = Solubility in buffer systems by UPLC-UV (Example 13); assay type: physicochemical
Experimental: Prior to performing the solubility measurements, the purity of the compounds was determined through UPLC/MS. […] Therefore, solutions from solid samples were prepared in a buffer system with a concentration of 10 mg/mL compound based on the previously determined % purity.
UPLC-UV was performed after 1 hour of gentle agitation from the supernatant, which was obtained after 15 minutes of centrifugation at 2500 RCF (relative centrifugal acceleration). The solubility was determined by the comparison of the UV peak area of a 2 μL-injection of a buffered sample diluted 1:10 with a standard curve of a reference compound with known concentration. The different UV extinction coefficients of sample and reference compound were calculated based on the different amino acid sequences and considered in the concentration calculation.

CRF1R receptor = target: T2, CRF1R receptor (Homo sapiens, UniProt P34998); experiment: cAMP activity at anti-target CRF1R, CRF1R-overexpression CHO cell line (Example 9); assay type: cell-based; details: CRF1R-overexpression CHO cell line
T2 construct: host or cells: CHO-K1 clone 2
T2 sequence (P34998 24-415): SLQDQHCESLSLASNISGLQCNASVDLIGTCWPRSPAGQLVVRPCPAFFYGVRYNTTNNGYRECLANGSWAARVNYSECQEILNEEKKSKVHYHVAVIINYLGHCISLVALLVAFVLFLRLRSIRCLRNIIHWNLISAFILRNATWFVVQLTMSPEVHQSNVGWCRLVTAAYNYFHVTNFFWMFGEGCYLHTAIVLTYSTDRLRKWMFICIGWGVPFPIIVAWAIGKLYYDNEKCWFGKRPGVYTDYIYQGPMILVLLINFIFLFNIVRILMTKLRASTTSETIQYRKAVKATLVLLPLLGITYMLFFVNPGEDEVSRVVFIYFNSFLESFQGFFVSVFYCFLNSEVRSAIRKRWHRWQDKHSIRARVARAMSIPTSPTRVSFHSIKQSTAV
How it was run: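 cAMP accumulation was read by HTRF after 30 min at room temperature of compound treatment. Cells were cryopreserved CHO cells overexpressing CRF1R, plated at 2000/well in IBMX (2 mM)-containing HBSS/HEPES buffer with 0 or 0.1% HSA. Activity was normalized to 1000 nM UCN2 as 100%.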

[2] = 0% HSA, read-out: EC50 [nM], 0% HSA
[3] = pH 4.5, Solubility in Buffer B [mg/ml]
[4] = pH 7.4, Solubility in Buffer C [mg/ml]

Row | SMILES | EC50 (human CRF2α receptor; [2]) [nM] | EC50 (human CRF2α receptor; 0.1% HSA, read-out: EC50 [nM], 0.1% HSA) [nM] | solubility at 1 h [1, 3] [µg/mL] | EC50 (CRF1R receptor; 0% HSA) [nM] | Emax (CRF1R receptor; read-out: Emax (%)) [%] | solubility at 1 h [1, 4] [µg/mL] | solubility at 1 h ([1]; pH 4.5, Solubility in Buffer A [mg/ml]) [µg/mL]
1 | CCCCCCCCCCCCCCCC(=O)N[C@@H](CCC(=O)NCCCC[C@H](NC(=O)[C@H](CC(C)C)NC(=O)[C@H](CCCCN)NC(=O)[C@@H](NC(=O)[C@@H]1CCCN1C(=O)[C@@H](NC(=O)[C@H](CC(=O)O)NC(=O)[C@H](CC(C)C)NC(=O)[C@H](CO)NC(=O)[C@H](CC(C)C)NC(=O)[C@@H](NC(=O)[C@@H](N)[C@@H](C)CC)C(C)C)C(C)C)[C@@H](C)CC)C(=O)N[C@@H](CCCCN)C(=O)N[C@H](C(=O)N[C@@H](CC(C)C)C(=O)N[C@@H](CC(C)C)C(=O)N[C@@H](CCC(=O)O)C(=O)N[C@@H](CCC(N)=O)C(=O)N[C@@H](CCC(=O)O)C(=O)N[C@@H](CCCCN)C(=O)N[C@@H](CCC(N)=O)C(=O)N[C@@H](CCC(=O)O)C(=O)N[C@@H](CCCCN)C(=O)N[C@@H](CCC(=O)O)C(=O)N[C@@H](CCCCN)C(=O)N[C@@H](CCC(N)=O)C(=O)N[C@@H](CCC(N)=O)C(=O)N[C@@H](C)C(=O)N[C@@H](CCC(=O)O)C(=O)N[C@H](C(=O)N[C@@H](CC(N)=O)C(=O)N[C@@H](C)C(=O)N[C@@H](CCC(N)=O)C(=O)N[C@H](C(=O)N[C@@H](CC(C)C)C(=O)N[C@@H](C)C(=O)N[C@@H](CCC(N)=O)C(=O)N[C@H](C(N)=O)C(C)C)[C@@H](C)CC)[C@@H](C)O)[C@@H](C)CC)C(=O)O [compound 2] (H-IVLSLDVPIKLK([γGlu-Palmitoyl])KILLEQEKQEKEKQQAETNAQILAQV-NH2; N-terminus assumed) | 0.01 | 0.01 | > 7600 |  |  |  | 
2 | CCCCCCCCCCCCCCCC(=O)N[C@@H](CCC(=O)NCCCC[C@H](NC(=O)[C@H](CC(C)C)NC(=O)[C@H](CCCCN)NC(=O)[C@@H](NC(=O)[C@@H]1CCCN1C(=O)[C@@H](NC(=O)[C@H](CC(=O)O)NC(=O)[C@H](CC(C)C)NC(=O)[C@H](CO)NC(=O)[C@H](CC(C)C)NC(=O)[C@@H](NC(=O)[C@@H](N)[C@@H](C)CC)C(C)C)C(C)C)[C@@H](C)CC)C(=O)N[C@@H](CCCCN)C(=O)N[C@H](C(=O)N[C@@H](CC(C)C)C(=O)N[C@@H](CC(C)C)C(=O)N[C@@H](CCC(=O)O)C(=O)N[C@@H](CCC(N)=O)C(=O)N[C@@H](CCC(=O)O)C(=O)N[C@@H](CCCCN)C(=O)N[C@@H](CCC(N)=O)C(=O)N[C@@H](CCC(=O)O)C(=O)N[C@@H](CCCCN)C(=O)N[C@@H](CCC(=O)O)C(=O)N[C@@H](CCCCN)C(=O)N[C@@H](CCC(N)=O)C(=O)N[C@@H](CCC(N)=O)C(=O)N[C@@H](C)C(=O)N[C@@H](CCC(=O)O)C(=O)N[C@@H](CCCCN)C(=O)N[C@@H](CC(N)=O)C(=O)N[C@@H](C)C(=O)N[C@@H](CCC(N)=O)C(=O)N[C@H](C(=O)N[C@@H](CC(C)C)C(=O)N[C@@H](C)C(=O)N[C@@H](CCC(N)=O)C(=O)N[C@H](C(N)=O)C(C)C)[C@@H](C)CC)[C@@H](C)CC)C(=O)O [compound 3] (H-IVLSLDVPIKLK([γGlu-Palmitoyl])KILLEQEKQEKEKQQAEKNAQILAQV-NH2) | 0.01 |  | > 8800 |  |  |  | 
3 | CCCCCCCCCCCCCCCC(=O)N[C@@H](CCC(=O)NCCCC[C@H](NC(=O)[C@@H](NC(=O)[C@H](CCCCN)NC(=O)[C@@H](NC(=O)[C@@H]1CCCN1C(=O)[C@@H](NC(=O)[C@H](CC(=O)O)NC(=O)[C@H](CC(C)C)NC(=O)[C@H](CO)NC(=O)[C@H](CC(C)C)NC(=O)[C@@H](NC(=O)[C@@H](N)Cc1ccccc1)[C@@H](C)O)C(C)C)[C@@H](C)O)[C@@H](C)CC)C(=O)N[C@@H](CCC(N)=O)C(=O)N[C@@H](CCCCN)C(=O)N[C@@H](CC(C)C)C(=O)N[C@@H](CC(C)C)C(=O)N[C@@H](CCCCN)C(=O)N[C@@H](CCC(N)=O)C(=O)N[C@@H](CCC(=O)O)C(=O)N[C@@H](CCCCN)C(=O)N[C@@H](CCC(N)=O)C(=O)N[C@@H](CCCCN)C(=O)N[C@@H](CCCCN)C(=O)N[C@@H](CCC(N)=O)C(=O)N[C@@H](CCCNC(=N)N)C(=O)N[C@@H](CCC(N)=O)C(=O)N[C@@H](CCCCN)C(=O)N[C@@H](C)C(=O)N[C@@H](CCCCN)C(=O)N[C@H](C(=O)N[C@@H](CC(N)=O)C(=O)N[C@@H](CCCCN)C(=O)N[C@@H](CCC(N)=O)C(=O)N[C@H](C(=O)N[C@@H](CC(C)C)C(=O)N[C@@H](CCC(=O)O)C(=O)N[C@@H](CCC(N)=O)C(=O)N[C@H](C(N)=O)C(C)C)[C@@H](C)CC)[C@@H](C)O)C(=O)O [compound 10] (H-FTLSLDVPTKIK([γGlu-Palmitoyl])QKLLKQEKQKKQRQKAKTNKQILEQV-NH2) |  |  |  | > 1000 | 10.2 | > 10000 | 
4 | CCCCCCCCCCCCCCCC(=O)N[C@@H](CCC(=O)NCCCC[C@H](NC(=O)[C@H](CC(C)C)NC(=O)[C@H](CCCCN)NC(=O)[C@@H](NC(=O)[C@@H]1CCCN1C(=O)[C@H](NC(=O)[C@H](CC(=O)O)NC(=O)[C@H](CC(C)C)NC(=O)[C@H](CO)NC(=O)[C@H](CC(C)C)NC(=O)[C@@H](NC(=O)[C@@H](N)[C@@H](C)CC)C(C)C)C(C)C)[C@@H](C)O)C(=O)N[C@@H](CCC(N)=O)C(=O)N[C@@H](CCCCN)C(=O)N[C@@H](CC(C)C)C(=O)N[C@@H](CC(C)C)C(=O)N[C@@H](CCCCN)C(=O)N[C@@H](CCC(N)=O)C(=O)N[C@@H](CCC(=O)O)C(=O)N[C@@H](CCCNC(=N)N)C(=O)N[C@@H](CCC(N)=O)C(=O)N[C@@H](CCCNC(=N)N)C(=O)N[C@@H](CCCCN)C(=O)NC(C)(C)C(=O)N[C@@H](CCCNC(=N)N)C(=O)N[C@@H](CCC(=O)O)C(=O)N[C@@H](CCC(N)=O)C(=O)N[C@@H](C)C(=O)N[C@@H](CCC(=O)O)C(=O)N[C@@H](CCCCN)C(=O)N[C@@H](CC(N)=O)C(=O)N[C@@H](CCCCN)C(=O)N[C@@H](CCCNC(=N)N)C(=O)N[C@H](C(=O)N[C@@H](CC(C)C)C(=O)N[C@@H](CCC(=O)O)C(=O)N[C@@H](CCCNC(=N)N)C(=O)N[C@H](C(N)=O)C(C)C)[C@@H](C)CC)C(=O)O [compound 20] (H-IVLSLD[dV]PTKLK([γGlu-Palmitoyl])QKLLKQERQRK[Aib]REQAEKNKRILERV-NH2; N-terminus assumed) | 0.01 |  | > 9100 |  |  | 6800 (≈ 1370 µM) | > 9500
5 | CCCCCCCCCCCCCCCC(=O)N[C@@H](CCC(=O)NCCCC[C@H](NC(=O)[C@H](CC(C)C)NC(=O)[C@H](CCCCN)NC(=O)[C@@H](NC(=O)[C@@H]1CCCN1C(=O)[C@H](NC(=O)[C@H](CC(=O)O)NC(=O)[C@H](CC(C)C)NC(=O)[C@H](CO)NC(=O)[C@H](CC(C)C)NC(=O)[C@@H](NC(=O)[C@@H](N)[C@@H](C)CC)C(C)C)C(C)C)[C@@H](C)O)C(=O)N[C@@H](CCC(N)=O)C(=O)N[C@@H](CCCCN)C(=O)N[C@@H](CC(C)C)C(=O)N[C@@H](CC(C)C)C(=O)N[C@@H](CCCCN)C(=O)N[C@@H](CCC(N)=O)C(=O)N[C@@H](CCC(=O)O)C(=O)N[C@@H](CCCNC(=N)N)C(=O)N[C@@H](CCC(N)=O)C(=O)N[C@@H](CCCNC(=N)N)C(=O)N[C@@H](CCCCN)C(=O)N[C@@H](CCC(=O)O)C(=O)N[C@@H](CCCNC(=N)N)C(=O)NC(C)(C)C(=O)N[C@@H](CCC(N)=O)C(=O)N[C@@H](C)C(=O)N[C@@H](CCC(=O)O)C(=O)N[C@@H](CCCCN)C(=O)N[C@@H](CC(N)=O)C(=O)N[C@@H](CCCCN)C(=O)N[C@@H](CCCNC(=N)N)C(=O)N[C@H](C(=O)N[C@@H](CC(C)C)C(=O)N[C@@H](CCC(=O)O)C(=O)N[C@@H](CCCNC(=N)N)C(=O)N[C@H](C(N)=O)C(C)C)[C@@H](C)CC)C(=O)O [compound 23] (H-IVLSLD[dV]PTKLK([γGlu-Palmitoyl])QKLLKQERQRKER[Aib]QAEKNKRILERV-NH2; N-terminus assumed) | 0.02 |  |  |  |  | 9100 (≈ 1830 µM) | 
